The subject of one data set is mice. In words: Acute toxicity determination, intravenous toxicity in mice. The data set is classed as in vivo, mice (Swiss origin, IOPS mice of OFI strain). The conditions noted are these: 24 hours. On the procedure:
Intravenous toxicity determination was effected in Swiss origin, IOPS mice of OFI strain.
Each dosage level was injected to a lot of 10 mice comprising 5 male and 5 female mice.
Injections were made manually, in the caudal vein, at a rate of 2 ml/minute.
Death rate during the 24 hours after injection was recorded.

A short description of data set [1]: Viscosity of 28% methylglucamine salt solutions at 37° C. The data set is classed as physicochemical. The conditions noted are these: 28% iodine methylglucamine salt solution. On the procedure:
Pharmaceutical grade injectable solutions are prepared in the form of the methylgucamine or sodium salt, containing 28, 38 or 48 g iodine per 100 ml (solutions said to contain 28%, 38% and 48% iodine).
It is apparent, from said results, that, contrary to expectations, the compounds of the formula (I) have relatively low solution viscosities.

Another data set relates to femoral artery. In words: Effect on the femoral rate of flow (peripheral vasodilatation). The data set is classed as in vivo, mongrels. On the procedure:
This test was carried out in Nembutal-anesthetized male or female 7-12 mongrels.
Nembutal was used at a dosage of 30 mg/kg, with Vetranquil pre-medication, (overall intravenous injection of 2.5 mg), respiration was spontaneous.
Rate of flow variations were recorded at the level of the right or left fermoral artery, by means of a Statham electromagnetic sensor.
The injections were made in a collateral of the fermoral artery, downstream of the sensor, by means of a catheter mounted by the retrograde route, so as not to perturb the blood flow.
The injections were made under a constant volume of 1.5 ml administered within 3-5 seconds.
The same volume of an iostonic sodium chloride solution was also injected.

Data set [2] is described as follows: Osmolality determination (FISKE osmometer). To be noted: solutions containing 28% iodine; methylglucamine salts; extrapolation from successive dilutions. The data set is classed as physicochemical. On the procedure: Osmolality is determined by extrapolation of the values obtained on successive dilutions of solutions containing 28% or 38% iodine.
Osmolality readings are made with a FISKE Model 230/D/330 D osmometer. This apparatus indicates this measurement as milliosmoles per kg of solution. Its operation is based on the principles of cryoscopy. The determinations were made with solutions containing 28% iodine.

The nature of data set [3]: Biliary clearance test in cats. The data set is classed as in vivo. Also noted: scale not given here. On the procedure:
This test was conducted in male or female adult cats weighing 3-4 kg.
The test material was injected intravenously, at a dosage of 0.10 g/kg iodine at the level of the internal saphenous vein. Clearance of the material was monitored by X-ray control.
X-ray pictures visualizing the gall bladder and the bladder were taken at the following times: 30 minutes, 1 hour, 2 hours, 3 hours, 4 hours, 5 hours, 6 hours.

Another data set concerns rats. In words: Toxicological investigation in rats on intracisternal injection (Melartin's method). The data set is classed as in vivo. To be noted: 56 mg I per rat. The source says:
The results of a toxicological investigation effected in rats on intracisternal injection, according to E. Melartin's method (InvestigativeRadiology 1970 5, 1, 13-21) are also set forth below.

Setting [4] is: 1.5 ml into collateral of femoral artery, 28% I, Mgl salt.
[5] abbreviates: i.v., 0.10 g I/kg, 28% I, Mgl salt.

Structures are written as SMILES.

Regarding `CNC(=O)c1c(I)c(C(=O)NCC(=O)Nc2c(I)c(C(=O)O)c(I)c(C(=O)NCCO)c2I)c(I)c(N(C)C(C)=O)c1I` [Compound 1, 2,4,6-triiodo-3-N-hydroxyethylcarbamyl-5-(2,4,6-triiodo-3-N-methylcarbamyl-5-N-methyl-N-acetylaminobenzoyl)glycylamino-benzoic acid], in the data set on mice (38% I, Mgl salt), the “Acute toxicity in mice, i.v.” value came out at 11.5 grams I/kg. For the same compound, the Viscosity in data set [1] is 5.4 cps. Moreover, the “Peripheral vasodilatation, femoral rate of flow” value (“Peripheral vasodilatation” for short) with femoral artery (in vivo) was “+”. Moreover, in data set [2], the Osmolality is on record as 510 mosm/kg. In addition, the “Biliary clearance in cat, i.v.” value in data set [3] (in vivo, iv) was “±”.
Take `CNC(=O)c1c(I)c(NC(=O)CCCNC(=O)c2c(I)c(C(=O)NC)c(I)c(N(C)C(C)=O)c2I)c(I)c(C(=O)O)c1I` [Compound 2, 2,4,6-triiodo-3-N-methylcarbamyl-5-(2,4,6-triiodo-3-N-methylcarbamyl-5-N-methylacetamido-benzoyl)-γ-aminobutyrylamino-benzoic acid]: the “Acute toxicity in mice, i.v.” value in the data set on mice (28% I, Mgl salt) is on record as 9.5 grams I/kg. For the same compound, the Viscosity in data set [1] stood at 6.56 cps. For the same compound, the “Peripheral vasodilatation” value in the data set on femoral artery (setting [4]) is given as “+”. The Osmolality in data set [2] is reported as 475 mosm/kg. For the same compound, the “Biliary clearance in cat, i.v.” value in data set [3] (setting [5]) amounted to 0.
As for `CNC(=O)c1c(I)c(NC(=O)CNC(=O)c2c(I)c(C(=O)NC)c(I)c(N(C)C(C)=O)c2I)c(I)c(C(=O)O)c1I` [Compound 9, 2,4,6-triiodo-3-N-methylcarbamyl-5-(2,4,6-triiodo-3-N-methylcarbamyl-5-N-methylacetamido-benzoyl)-glycylamino-benzoic acid], the “Acute toxicity in mice, i.v.” value with mice (38% I, Mgl salt) is 11.5 grams I/kg. Further, the Viscosity in data set [1] turned out to be 5.8 cps. For the same compound, in the data set with femoral artery (1.5 ml into collateral of femoral artery, 38% I, Mgl salt), the “Peripheral vasodilatation” value was “+”. The Osmolality in data set [2] is 440 mosm/kg. Besides, in data set [3] (i.v., 0.10 g I/kg, 38% I, Mgl salt), the “Biliary clearance in cat, i.v.” value is given as “++”.
`CNC(=O)c1c(I)c(C(=O)O)c(I)c(N(C)C(=O)CN(CC(=O)Nc2c(I)c(C(=O)NCCO)c(I)c(C(=O)NCCO)c2I)CC(=O)Nc2c(I)c(C(=O)NCCO)c(I)c(C(=O)NCCO)c2I)c1I` [Compound 33, 2,4,6-triiodo-3-N-methylcarbamyl-5-bis{[2,4,6-triiodo-3,5,-bis(N-hydroxyethylcarbamyl)-phenyl]carbamylmethyl}amino-N-methylacetamido-benzoic acid]: the “Acute toxicity in mice, i.v.” value in the data set on mice (38% I, Na salt) turned out to be 17 grams I/kg. For the same compound, the Death rate with rats is 0/10. The “Peripheral vasodilatation” value with femoral artery (1.5 ml into collateral of femoral artery, 38% I, Na salt) is listed as “++”. Moreover, in data set [2], the Osmolality is listed as 370 mosm/kg.
With `CNC(=O)c1c(I)c(NC(=O)CNC(=O)c2c(I)c(C(=O)NCCO)c(I)c(N(C)C(C)=O)c2I)c(I)c(C(=O)O)c1I` [Compound 8, 2,4,6-triiodo-3-N-methylcarbamyl-5-(2,4,6-triiodo-3-N-hydroxyethylcarbamyl-5-N-methylacetamido-benzoyl)glycyl amino-benzoic acid], the “Acute toxicity in mice, i.v.” value in the data set on mice (28% I, Mgl salt) came out at 12 grams I/kg. Besides, in data set [1], the Viscosity is 5.5 cps. The “Peripheral vasodilatation” value in the data set on femoral artery (setting [4]) is “++”. The Osmolality in data set [2] was 535 mosm/kg. For the same compound, the “Biliary clearance in cat, i.v.” value in data set [3] (setting [5]) is on record as “±”.
In the case of `CNC(=O)c1c(I)c(C(=O)NCCCC(=O)Nc2c(I)c(C(=O)O)c(I)c(C(=O)NCCO)c2I)c(I)c(N(C)C(C)=O)c1I` [Compound 24, 2,4,6-triiodo-3-N-hydroxyethylcarbamyl5-(2,4,6-triiodo-3-N-methylcarbamyl-5-N-methylacetamidobenzoyl)-ε-amino-butyrylamino-benzoic acid], in the data set on mice (28% I, Mgl salt), the “Acute toxicity in mice, i.v.” value was determined as 8.5 grams I/kg. The Viscosity in data set [1] stood at 6 cps. Besides, the “Peripheral vasodilatation” value with femoral artery (setting [4]) is listed as “+”. For the same compound, the Osmolality in data set [2] was 575 mosm/kg. The “Biliary clearance in cat, i.v.” value in data set [3] (setting [5]) amounted to 0.
The like results for `CNC(=O)c1c(I)c(NC(C)=O)c(I)c(C(=O)NCC(=O)N(C)c2c(I)c(C(=O)O)c(I)c(C(=O)NC)c2I)c1I` [Compound 14, 2,4,6-triiodo-3-N-methylcarbamyl-5-(2,4,6-triiodo-3-N-methylcarbamyl-5-acetamido-benzoyl)-glycyl-N-methylamino-benzoic acid] were, in that order, 12 grams I/kg, 5.2 cps, “+”, 600 mosm/kg and “+”.
On to `CNC(=O)c1c(I)c(C(=O)NCCCC(=O)N(C)c2c(I)c(C(=O)O)c(I)c(C(=O)NC)c2I)c(I)c(N(C)C(C)=O)c1I` [Compound 37, 2,4,6-triiodo-3-N-methylcarbamyl-5-(2,4,6-triiodo-3-N-methylcarbamyl-5-N-methylacetamido-benzoyl)-γ-aminobutyryl-N-methylamino-benzoic acid], for which, in the data set on mice (28% I, Mgl salt), the “Acute toxicity in mice, i.v.” value was below 6 grams I/kg. Moreover, in the data set with femoral artery (setting [4]), the “Peripheral vasodilatation” value was “++++”. Further, in data set [2], the Osmolality was 730 mosm/kg. Moreover, the “Biliary clearance in cat, i.v.” value in data set [3] (setting [5]) was “++”.
In the same order, the values of `CNC(=O)c1c(I)c(C(=O)NCCCCCC(=O)Nc2c(I)cc(I)c(C(=O)O)c2I)c(I)c(N(C)C(C)=O)c1I` [Compound 10, 2,4,6-triiodo-5-(2,4,6-triiodo-3-N-methylcarbamyl-5-N-methylacetamido-benzoyl)-ε-aminocaproylamino-benzoic acid] are 1.5 grams I/kg, “++++”, 420 mosm/kg and “++++”.
As to `CNC(=O)c1c(I)c(NC(C)=O)c(I)c(C(=O)O)c1I` [a, 2,4,6-Triiodo-3-N-methylcarbamyl-5-acetamido-benzoic acid, reference compound], in the data set with mice (28% I, Mgl salt), the “Acute toxicity in mice, i.v.” value came to 5.4 grams I/kg. Further, the “Peripheral vasodilatation” value in the data set on femoral artery (setting [4]) is listed as “+++”. Besides, in data set [2], the Osmolality is given as 1410 mosm/kg. In addition, in data set [3] (in vivo, iv), the “Biliary clearance in cat, i.v.” value was 0.
For `CC(=O)Nc1c(I)c(C(=O)NCC(=O)Nc2c(I)c(C(=O)O)c(I)c(C(=O)NCCO)c2I)c(I)c(N(C)C(C)=O)c1I` [Compound 6, 2,4,6-triiodo-3-N-hydroxyethylcarbamyl-5-(2,4,6-triiodo-3-acetamido-5-N-methylacetamido-benzoyl)-glycylamino-benzoic acid], the “Acute toxicity in mice, i.v.” value with mice (28% I, Mgl salt) came to 10 grams I/kg. Besides, the Viscosity in data set [1] is recorded as 5.2 cps. Also, the “Peripheral vasodilatation” value in the data set on femoral artery (setting [4]) is on record as “+”. Moreover, in data set [2], the Osmolality was 480 mosm/kg. Moreover, the “Biliary clearance in cat, i.v.” value in data set [3] (setting [5]) came to 0.
`CNC(=O)c1c(I)c(C(=O)NCC(=O)Nc2c(I)c(NC(C)=O)c(I)c(C(=O)O)c2I)c(I)c(N(C)C(C)=O)c1I` [Compound 25, 2,4,6-triiodo-3-acetamido-5-(2,4,6-triiodo-3-N-methylcarbamyl-5-N-methylacetamido-benzoyl)glycylamino-benzoic acid]: the “Acute toxicity in mice, i.v.” value with mice (34% I, Na salt) was 9 grams I/kg. In addition, the “Peripheral vasodilatation” value in the data set on femoral artery (1.5 ml into collateral of femoral artery, 34% I, Na salt) was “++”. For the same compound, the Osmolality in data set [2] was 925 mosm/kg. The “Biliary clearance in cat, i.v.” value in data set [3] (i.v., 0.10 g I/kg, 34% I, Na salt) is 0.
Consider `CNC(=O)c1c(I)c(NC(C)=O)c(I)c(C(=O)NCC(=O)Nc2c(I)c(C(=O)O)c(I)c(C(=O)NCCO)c2I)c1I` [Compound 3, 2,4,6-triiodo-3-N-hydroxyethylcarbamyl-5-(2,4,6-triiodo-3-N-methylcarbamyl-5-acetamidio-benzoyl)-glycylaminobenzoic acid], for which the “Acute toxicity in mice, i.v.” value in the data set on mice (28% I, Mgl salt) is 9-10 grams I/kg. The Viscosity in data set [1] is 5.72 cps. Moreover, in the data set on femoral artery (setting [4]), the “Peripheral vasodilatation” value is “+”. Also, the Osmolality in data set [2] is listed as 550 mosm/kg.

These data come from US4094966A, “Iodobenzene derivatives and X-ray contrast media containing the same” (priority 1974, dated 1978).
